Laboratory results published in PMC8880671, “Facial Synthesis and Bioevaluation of Well-Defined OEGylated Betulinic Acid-Cyclodextrin Conjugates for Inhibition of Influenza Infection” (Molecules, 2022).
Like-named read-outs stand apart in the source and are kept apart here.

Legend:
influenza virus [1] = system: influenza virus; set-up: method as in PMID 28792469; conditions: 50 µg/mL; cited from earlier work
[2] = Cytotoxicity test, CellTiter-Glo luminescent cell viability assay; conditions: dog, MDCK cells
MDCK cells [3] = conditions: read-out: CC50 (cytotoxicity concentration for 50% cell death); cited from earlier work
influenza virus [4] = system: influenza virus; set-up: method as in doi:10.1134/S1068162018050059; conditions: read-out: EC50, anti-influenza activity; cited from earlier work
A/PR/8/34 virus = system: A/PR/8/34 virus; set-up: method as in PMID 26157551; conditions: 10 μM; cited from earlier work
[5] = system: avian influenza KBNP-0028 (H9N2) virus; conditions: read-out: EC50 against avian influenza KBNP-0028 (H9N2) virus; cited from earlier work
[6] = system: influenza A/WSN/33 (H1N1) virus; experiment: microbe, parasite or virus in culture; format: cell-based; conditions: for IC50: read-out: IC50 (half maximal inhibitory concentration); for inhibition rate against influenza virus A/WSN/33 (H1N1): CPE-based screening at 20 μM
in vitro = conditions: dog
MDCK cells [7] = experiment: Cytotoxicity test, CellTiter-Glo luminescent cell viability assay; conditions: for CC50: read-out: CC50 (cytotoxicity concentration for 50% cell death), MDCK cells; for MDCK cell viability: 100 µM, 36 h, CellTiter-Glo

Compound: C=C(C)[C@@H]1CC[C@]2(C(=O)O)CC[C@]3(C)[C@H](CC[C@@H]4[C@@]5(C)CC[C@H](O)C(C)(C)[C@@H]5CC[C@]43C)[C@@H]12 [BA, Betulinic acid]
- anti-influenza activity (inhibition) (influenza virus [1]): 27.6%
- viability at 36 h, 100 µM [2]: 8.5%
- CC50 (MDCK cells [3]): 31.9 µM
- EC50 (influenza virus [4]): > 219 µM
- anti-influenza activity against A/PR/8/34 virus (A/PR/8/34 virus): ~ 30%

Compound: C=C(C)[C@@H]1CC[C@]2(C=O)CC[C@]3(C)[C@H](CC[C@@H]4[C@@]5(C)CC[C@H](O)C(C)(C)[C@@H]5CC[C@]43C)[C@@H]12 [Betulinic aldehyde]
- EC50 [5]: 28.4 µM

Compound: CC(=O)N[C@H]1[C@H]([C@H](O)[C@H](O)CO)OC(C(=O)O)=C[C@@H]1N=C(N)N [Zanamivir, reference compound]
- SI (Selectivity Index, ratio of CC50 to IC50) [6]: >79.4
- IC50 ([6]; Influenza A virus, MDCK, 36 h): 1.26 ± 0.36 µM
- CC50 (in vitro): > 100 µM

Compound: Heptakis 6-Deoxy-6-[4-N-(3β-Hydroxy-lup-20(29)-en-28-oyl)-aminomethyl-1H-1,2,3-triazol-1-yl]-β-CD [Compound 70]
- IC50 [6]: 7.48 ± 1.93 µM
- CC50 (MDCK cells [7]): > 100 µM

Compound: Heptakis 6-Deoxy-6-[4-N-[(2-(2-(2-Propyn-1-yloxy)ethoxy)ethyl)-3β-hydroxy-lup-20(29)-en-28-Oyl]-aminomethyl-1H-1,2,3-triazol-1-Yl]-2,3-di-O-acetyl-β-CD [Compound 58]
- MDCK cell viability (MDCK cells [7]): 68%

Compound: Heptakis 6-Deoxy-6-[4-N-[(3,6,9,12,15,18-Hexaoxaheneicos-20-yn-1-yl)-3β-hydroxy-lup-20(29)-en-28-oyl]-aminomethyl-1H-1,2,3-triazol-1-yl]-β-CD [Compound 82]
- MDCK cell viability (MDCK cells [7]): 67%

Compound: Hexakis 6-Deoxy-6-[4-N-(3β-Hydroxy-lup-20(29)-en-28-oyl)-aminomethyl-1H-1,2,3-triazol-1-yl]-α-CD [Compound 69]
- IC50 [6]: 9.82 ± 1.74 µM
- CC50 (MDCK cells [7]): > 100 µM

Compound: Hexakis 6-Deoxy-6-[4-N-[(2-(2-(2-Propyn-1-yloxy)ethoxy)ethyl)-3β-hydroxy-lup-20(29)-en-28-oyl]-aminomethyl-1H-1,2,3-triazol-1-yl]-2,3-di-O-acetyl-α-CD [Compound 57]
- inhibition rate against influenza virus A/WSN/33 (H1N1) [6]: over 50%

Compound: Hexakis 6-Deoxy-6-[4-N-[(2-(2-(2-Propyn-1-yloxy)ethoxy)ethyl)-3β-hydroxy-lup-20(29)-en-28-oyl]-aminomethyl-1H-1,2,3-triazol-1-yl]-α-CD [Compound 75]
- IC50 ([6]; A/WSN/33 virus in MDCK cells, MOI 0.2, 36 h): 15.6 ± 3.32 µM
- inhibition rate against influenza virus A/WSN/33 (H1N1) [6]: over 50%

Compound: Hexakis 6-Deoxy-6-[4-N-[(3,6,9,12-Tetraoxapentadec-14-yn-1-yl)-3β-hydroxy-lup-20(29)-en-28-oyl]-aminomethyl-1H-1,2,3-triazol-1-yl]-α-CD [Compound 78]
- inhibition rate against influenza virus A/WSN/33 (H1N1) [6]: over 50%

Compound: Octakis 6-Deoxy-6-[4-N-(3β-Hydroxy-lup-20(29)-en-28-oyl)-aminomethyl-1H-1,2,3-triazol-1-yl]-γ-CD [Compound 71]
- IC50 [6]: 7.59 ± 1.57 µM
- CC50 (MDCK cells [7]): > 100 µM

Compound: Octakis 6-Deoxy-6-[4-N-[(3,6,9,12-Tetraoxapentadec-14-yn-1-yl)-3β-hydroxy-lup-20(29)-en-28-oyl]-aminomethyl-1H-1,2,3-triazol-1-yl]-γ-CD [Compound 80]
- MDCK cell viability (MDCK cells [7]): 64%
